The values below come from patent EP4664463A1, “COMPUTER-IMPLEMENTED METHOD FOR OLFACTORY PROPERTY PREDICTION” (Givaudan SA, priority 2024, dated 2025).

One data set concerns OR2M2. Kind of data set: Activation of modified OR2M2 by sulfur compounds in presence of copper (luciferase). It counts as cell-based, human. The settings on record: modified C-terminus. An excerpt: The most pungent odorant in human axillary sweat with an ODT of 1 picogram / L air is 3-methyl-3-sulfanyl-hexanol (also known as 3-methyl-3-mercapto-hexanol) (Natsch et al. identification of Odoriferous Sulfanylalkanols in Human Axilla Secretions and Their Formation through Cleavage of Cysteine Precursors by a C-S Lyase Isolated from Axilla bacteria. […] 2004; 1:1058-1072). So far, no OR has been described which can selectively detect this key odorant leading to undesired axilla odor in human subjects. By screening a library of receptor variants with the C-terminal sequence SEQ ID NO: 86 in presence of copper against a library of 52 sulfur compounds (see example 5), a hitherto orphan receptor, OR2M2, was identified, which is activated by 3-methyl-3-mercapto-hexanol and closely related chemicals, but not by other sulfur odorants (Figure 19).

Data set [1] addresses T1, OR10J5 (Homo sapiens, UniProt Q8NHC4).
T1 construct: expressed in transfected cells; host or cells: HEK293T cells stably expressing human RTP1S (V227I) and RTP2 (L220R)
T1 sequence (Q8NHC4 with tags, fused parts or gaps): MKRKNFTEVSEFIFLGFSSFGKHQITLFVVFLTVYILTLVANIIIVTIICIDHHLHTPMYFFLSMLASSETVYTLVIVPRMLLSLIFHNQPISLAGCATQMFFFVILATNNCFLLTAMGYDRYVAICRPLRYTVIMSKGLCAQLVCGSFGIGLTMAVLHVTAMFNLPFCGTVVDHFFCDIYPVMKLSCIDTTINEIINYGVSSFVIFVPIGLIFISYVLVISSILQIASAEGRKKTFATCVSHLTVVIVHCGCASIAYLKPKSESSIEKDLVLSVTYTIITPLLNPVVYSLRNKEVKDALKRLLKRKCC
Kind of data set: cell-based. It counts as cell-based. The conditions noted are these: for EC50: changed C-term SEQ ID NO: 86, read-out: Potency EC50. The source says:
(§1) To create an expression plasmid, an OR coding sequence fused at the end of TM7 to the desired C-terminus sequence was synthesized by a DNA synthesis service provider (BioCat GmbH, Germany) and inserted into pcDNA3.1(+) (Invitrogen, MA, USA) downstream of the CMV promoter sequence (SEQ ID NO: 82) using BamHI and Notl restriction sites. All the synthetic OR nucleotide sequences described below in Examples 1-15 further contained at their N-terminus a nucleotide sequence encoding a signal peptide (mmLucy-FLAG-rho, SeQ ID NOs: 80, 81) and at the C-terminus the bgh terminator sequence (SEQ ID NO: 83). All the OR expression plasmids also contain a Kozak sequence (GCCACC) between the BamHI restriction site and the start codon of the signal peptide. These plasmids thus contain a constitutively expressed OR gene.

The subject of data set [2] is OR10J5. The data set is described as follows: cell-based. The class given is cell-based, human.
Excerpt: as §1

Data set [3] deals with T2, OR10J5 (Homo sapiens, UniProt Q8NHC4).
T2 construct: expressed in transfected cells; host or cells: HEK293T cells stably expressing human RTP1S (V227I) and RTP2 (L220R)
T2 sequence (Q8NHC4 1-309): T1 sequence (Q8NHC4 with tags, fused parts or gaps) with K301C, L303V, L304V, K305G, K307N, C308I, C309S
Kind of data set: cell-based. It counts as cell-based. The settings on record: for EC50: wild-type, read-out: Potency EC50.
Excerpt: as §1

Another data set addresses T3, OR56A4 (Homo sapiens, UniProt Q8NGH8).
T3 construct: expressed in transfected cells; host or cells: HEK293T stably expressing human RTP1S(V227I) and RTP2(L220R)
T3 sequence (Q8NGH8 1-313): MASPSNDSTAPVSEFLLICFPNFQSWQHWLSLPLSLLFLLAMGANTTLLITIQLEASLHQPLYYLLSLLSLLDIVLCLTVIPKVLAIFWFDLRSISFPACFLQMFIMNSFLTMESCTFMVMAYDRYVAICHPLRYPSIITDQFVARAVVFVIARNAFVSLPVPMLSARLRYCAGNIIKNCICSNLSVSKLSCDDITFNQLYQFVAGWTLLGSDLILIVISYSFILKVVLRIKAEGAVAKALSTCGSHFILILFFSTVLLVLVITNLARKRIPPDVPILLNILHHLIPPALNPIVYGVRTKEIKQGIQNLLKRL
The data set is described as follows: cell-based. It counts as cell-based. The conditions noted are these: wild-type.
Excerpt: as §1
Activation of OR56A4 by acids of different chain length was further tested. […] Replacing the wild-type with the C-terminal sequence of the functional OR51 E1 did reduce activity. However, using the optimized sequence form Examples 1-5 led to a strong signal and much lower detection threshold upon addition of all three acids.

The target in a further data set is T4, OR7D4 (Homo sapiens, UniProt Q8NG98, D296E/E302K/G299D).
T4 construct: expressed in transfected cells; host or cells: HEK293T cells stably expressing human RTP1S (V227I) and RTP2 (L220R)
T4 sequence (Q8NG98 with tags, fused parts or gaps D296E/G299D/E302K limits assumed): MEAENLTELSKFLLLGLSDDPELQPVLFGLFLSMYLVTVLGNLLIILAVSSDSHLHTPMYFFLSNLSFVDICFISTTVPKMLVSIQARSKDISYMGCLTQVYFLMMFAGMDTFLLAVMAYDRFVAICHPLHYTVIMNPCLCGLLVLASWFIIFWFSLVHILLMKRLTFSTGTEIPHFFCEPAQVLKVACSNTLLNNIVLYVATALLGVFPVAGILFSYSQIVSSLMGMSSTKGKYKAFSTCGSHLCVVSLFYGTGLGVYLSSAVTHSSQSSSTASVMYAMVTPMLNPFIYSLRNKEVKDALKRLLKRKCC
The data set is described as follows: cell-based. The class given is cell-based. The conditions noted are these: for EC50: read-out: Potency EC50.
Excerpt: as §1
Similarly, in Figure 7 the dose-response of OR7D4 is shown when tested both with androstenone and the closely related molecule androstenol. […] Thus, a better understanding of the receptive space of OR7D4 is possible based on the improved sensitivity of the assay provided by the modified variant.

The subject of data set [4] is OR5B12. Kind of data set: cell-based. The class given is cell-based, human.
Excerpt: as §1

The target of data set [5] is T5, OR5B12 (Homo sapiens, UniProt Q96R08).
T5 construct: expressed in transfected cells; host or cells: HEK293T cells stably expressing human RTP1S (V227I) and RTP2 (L220R)
T5 sequence (Q96R08 1-314): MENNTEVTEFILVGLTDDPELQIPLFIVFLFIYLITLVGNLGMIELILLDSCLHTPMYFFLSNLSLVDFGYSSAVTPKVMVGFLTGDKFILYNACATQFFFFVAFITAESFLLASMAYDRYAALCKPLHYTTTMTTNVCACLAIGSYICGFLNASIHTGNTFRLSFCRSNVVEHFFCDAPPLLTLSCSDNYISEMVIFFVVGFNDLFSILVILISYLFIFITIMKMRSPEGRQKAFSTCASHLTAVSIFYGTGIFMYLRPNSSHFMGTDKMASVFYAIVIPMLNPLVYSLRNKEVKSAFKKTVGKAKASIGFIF
Kind of data set: cell-based. The conditions noted are these: wild-type; for EC50: read-out: Potency EC50. The class given is cell-based.
Excerpt: as §1

For data set [6], the target named is T6, OR5B12 (Homo sapiens, UniProt Q96R08).
T6 construct: expressed in transfected cells; host or cells: HEK293T cells stably expressing human RTP1S (V227I) and RTP2 (L220R)
T6 sequence (Q96R08 with tags, fused parts or gaps): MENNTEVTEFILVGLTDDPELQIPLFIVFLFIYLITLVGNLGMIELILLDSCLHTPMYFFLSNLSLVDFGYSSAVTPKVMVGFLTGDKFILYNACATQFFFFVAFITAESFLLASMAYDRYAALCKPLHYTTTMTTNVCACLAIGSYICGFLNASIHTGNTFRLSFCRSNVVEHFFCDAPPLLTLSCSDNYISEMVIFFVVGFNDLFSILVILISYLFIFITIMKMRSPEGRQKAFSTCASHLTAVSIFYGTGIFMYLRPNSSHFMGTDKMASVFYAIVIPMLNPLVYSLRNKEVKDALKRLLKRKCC
The data set is described as follows: cell-based. The settings on record: for EC50: changed C-term SEQ ID NO: 86, read-out: Potency EC50; for Detection threshold; concentration for 2-fold induction: changed C-term. SEQ ID NO: 86. The class given is cell-based.
Excerpt: as §1

The target of the next data set is T7, OR5A2 (Homo sapiens, UniProt Q8NGI9).
T7 construct: expressed in transfected cells; host or cells: HEK293T cells with stably integrated human RTP1S (V227I) and RTP2 (L220R)
T7 sequence (Q8NGI9 with tags, fused parts or gaps): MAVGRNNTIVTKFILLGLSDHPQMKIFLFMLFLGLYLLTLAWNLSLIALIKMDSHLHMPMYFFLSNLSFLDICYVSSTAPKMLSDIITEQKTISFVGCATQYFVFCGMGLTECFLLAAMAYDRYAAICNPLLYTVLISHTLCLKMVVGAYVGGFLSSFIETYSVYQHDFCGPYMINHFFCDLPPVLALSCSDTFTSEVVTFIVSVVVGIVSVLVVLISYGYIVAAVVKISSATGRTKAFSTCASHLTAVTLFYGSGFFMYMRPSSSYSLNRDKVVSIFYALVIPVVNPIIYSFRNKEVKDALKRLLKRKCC
Kind of data set: Luciferase dose-response, wild-type vs changed C-terminus (SEQ ID NO: 86). The class given is cell-based. The settings on record: OR5A2 with SEQ ID NO: 86.
Excerpt: as §1

Residue numbers refer to the chain shown, from its start. Like-named read-outs stand apart in the source and are kept apart here. Bounds are passed on as bounds.

Turning to `C=C(C)C1CCC2=CC(=O)CC(C)C2(C)C1` (stereo not drawn) [Nootkatone, 5,6-Dimethyl-8-iso-propenylbicyclo-(4,4,0)-dec-1-en-3-one], the “activation of OR2M2” value in the data set on OR2M2 was “activated”.

`C/C(=C\CCC=O)CCCC(C)(C)O` [Mahonial, (4E)-9-hydroxy-5,9-dimethyl-4-Decenal]: on OR10J5 [1], the “Detection threshold; concentration for 2-fold induction” value is 0.65 µM and the EC50 (in general, the concentration at which the effect is half-maximal) is 20 µM. For the same molecule, in the data set with OR10J5 [2], the Fold-improvement potency was 2.3 and the Fold-improvement threshold is 11.5. Also, at OR10J5 [3], the “Detection threshold; concentration for 2-fold induction” value stood at 7.42 µM and the EC50 was 46 µM.

Consider `CCCCCCCCCC(=O)O` [decanoic acid], for which, on OR56A4, the “activation of wild-type OR56A4” value was “activated at high concentration”.

With `C[C@]12CC[C@@H](O)C[C@@H]1CC[C@@H]1[C@@H]2CC[C@]2(C)C=CC[C@@H]12` [androstenol], at OR7D4, the “activation of OR7D4 wild-type vs modified” value is recorded as “can only activate the modified version of the receptor”.

With `CCCC(C)(S)CCO` (stereo not drawn) [3-methyl-3-sulfanyl-hexanol], the “activation of OR2M2” value with OR2M2 was “activated”.

In the case of `Cc1cc(CC(C)C)ccc1CCC=O` [Nympheal, 3-(4-isobutyl-2-methylphenyl)propanal], at OR10J5 [1], the “Detection threshold; concentration for 2-fold induction” value is 5.64 µM and the EC50 was determined as 6.2 µM. In the data set on OR10J5 [2], the Comments on efficacy result is “Only 1.8-fold induction for WT, but 5.5-fold for changed C-terminus”; the Fold-improvement potency is reported as >>6; the Fold-improvement threshold is reported as >>6. At OR10J5 [3], the “Detection threshold; concentration for 2-fold induction” value is recorded as “n.i. (>31 µM, at cytotoxic dose)” and the EC50 was over 31 µM.

`CCCCCC1C(=O)CCC1CC(=O)OC` (stereo not drawn) [Hedione HC]: in the data set with OR5B12 [4], the Comments on efficacy was 4-fold lower maximal induction for wild-type, the Fold-improvement potency is 3.8 and the Fold-improvement threshold stood at 11. Moreover, at OR5B12 [5], the “Detection threshold; concentration for 2-fold induction” value worked out at 96 µM and the EC50 stood at 69 µM. Further, on OR5B12 [6], the EC50 was determined as 18.3 µM and the “Detection threshold; concentration for 2-fold induction” value amounted to 8.8 µM.

On to `C[C@]12CCC(=O)C[C@@H]1CC[C@@H]1[C@@H]2CC[C@]2(C)C=CC[C@@H]12` [Androstenone], for which, at OR7D4, the Comments on efficacy was 3-fold lower maximal induction for wild-type and the Fold-improvement potency is given as 66. Also, the EC50 at OR7D4 (changed C-term SEQ ID NO: 86) is 0.13 µM. Moreover, on OR7D4 (wild-type), the EC50 stood at 8.44 µM.

With `CCOc1cc(C=O)ccc1O` [ethyl vanillin], the “response of the modified receptor” value at OR5A2 is “no response”.

For `CCC(CC)C(=O)N(C)c1cccc(C)c1` [Paradisamide], the “activation of OR2M2” value in the data set on OR2M2 is “activated”.

Consider `CC1=CCC(C(C)(C)S)CC1` (stereo not drawn) [1-p-Menthene-8-thiol], for which the “activation of OR2M2” value in the data set on OR2M2 is given as “activated”.

`CCCCCC1C(=O)CCC1CC(=O)OC` (stereo not drawn) [Hedione]: in the data set on OR5B12 [4], the Comments on efficacy result is recorded as “Induction wild-type only 1.75-fold”, the Fold-improvement potency is over 5 and the Fold-improvement threshold is given as over 9. Moreover, on OR5B12 [5], the “Detection threshold; concentration for 2-fold induction” value is “n.i. >>( 250) µM” and the EC50 was over 250 µM. Further, at OR5B12 [6], the EC50 was determined as 58.3 µM and the “Detection threshold; concentration for 2-fold induction” value came to 29 µM.

On to `CCCCCCCCC(=O)O` [nonanoic acid], for which, on OR56A4, the “activation of wild-type OR56A4” value is on record as “not”.
